# In patent publication US8735601B2, “Pentamethine cyanine fluorescent dye with N-substituting at β-position of conjugated chain” (Dalian University of Technology, priority 2010, dated 2014):
# Experiment: Absorption and emission spectra of dyes in different solvents
# Format: physicochemical
# Parameters: key to Δλ1 / Δλ2: Stokes shift in nm; ε1 (molar extinction coefficient) / ε2 (molar extinction coefficient): scale not given here
# Conditions: Stokes shift to absorption peak 1; solvent DCM
# Text: In the present invention, compounds IIa to IIg were synthesized based on compound II, and their spectral properties were investigated. Compared with the traditional pentamethine cyanine dye, for the novel pentamethine cyanine dye with N-substituting at β-position (deviated position), it was observed that, evident blue shift of absorption and emission wavelengths occurred, absorption wavelength blue shifted even largely than that of emission wavelength, absorption spectrum and fluorescence spectrum were no longer mirror-symmetric and had two absorption peaks and a single emission peak, and larger Stokes shift (minimum 60 and 150 nm, and maximum 90 and 230 nm) appeared.
row,SMILES,Δλ1
1,CCN1/C(=C/C=C/C(=C/C2=[N+](CC)c3ccccc3C2(C)C)NCc2ccccc2)C(C)(C)c2ccccc21 [Dye IIe],81
2,CCN1/C(=C/C=C/C(=C/C2=[N+](CC)c3ccccc3C2(C)C)N(Cc2ccccc2)Cc2ccccc2)C(C)(C)c2ccccc21 [Dye IIf],87

# Same assay, conditions: Stokes shift to absorption peak 1; solvent DMSO
row,SMILES,Δλ1
1,CCN1/C(=C/C=C/C(=C/C2=[N+](CC)c3ccccc3C2(C)C)NCc2ccccc2)C(C)(C)c2ccccc21 [Dye IIe],92
2,CCN1/C(=C/C=C/C(=C/C2=[N+](CC)c3ccccc3C2(C)C)N(Cc2ccccc2)Cc2ccccc2)C(C)(C)c2ccccc21 [Dye IIf],90

# Same assay, conditions: Stokes shift to absorption peak 1; solvent Ethanol
row,SMILES,Δλ1
1,CCN1/C(=C/C=C/C(=C/C2=[N+](CC)c3ccccc3C2(C)C)NCc2ccccc2)C(C)(C)c2ccccc21 [Dye IIe],89
2,CCN1/C(=C/C=C/C(=C/C2=[N+](CC)c3ccccc3C2(C)C)N(Cc2ccccc2)Cc2ccccc2)C(C)(C)c2ccccc21 [Dye IIf],87

# Same assay, conditions: Stokes shift to absorption peak 1; solvent Methanol
row,SMILES,Δλ1
1,CCN1/C(=C/C=C/C(=C/C2=[N+](CC)c3ccccc3C2(C)C)NCc2ccccc2)C(C)(C)c2ccccc21 [Dye IIe],88
2,CCN1/C(=C/C=C/C(=C/C2=[N+](CC)c3ccccc3C2(C)C)N(Cc2ccccc2)Cc2ccccc2)C(C)(C)c2ccccc21 [Dye IIf],90

# Same assay, conditions: Stokes shift to absorption peak 1; solvent THF
row,SMILES,Δλ1
1,CCN1/C(=C/C=C/C(=C/C2=[N+](CC)c3ccccc3C2(C)C)NCc2ccccc2)C(C)(C)c2ccccc21 [Dye IIe],86
2,CCN1/C(=C/C=C/C(=C/C2=[N+](CC)c3ccccc3C2(C)C)N(Cc2ccccc2)Cc2ccccc2)C(C)(C)c2ccccc21 [Dye IIf],86

# Same assay, conditions: Stokes shift to absorption peak 1; solvent Water
row,SMILES,Δλ1
1,CCN1/C(=C/C=C/C(=C/C2=[N+](CC)c3ccccc3C2(C)C)NCc2ccccc2)C(C)(C)c2ccccc21 [Dye IIe],101
2,CCN1/C(=C/C=C/C(=C/C2=[N+](CC)c3ccccc3C2(C)C)N(Cc2ccccc2)Cc2ccccc2)C(C)(C)c2ccccc21 [Dye IIf],93

# Same assay, conditions: Stokes shift to absorption peak 2; solvent DCM
row,SMILES,Δλ2
1,CCN1/C(=C/C=C/C(=C/C2=[N+](CC)c3ccccc3C2(C)C)NCc2ccccc2)C(C)(C)c2ccccc21 [Dye IIe],185
2,CCN1/C(=C/C=C/C(=C/C2=[N+](CC)c3ccccc3C2(C)C)N(Cc2ccccc2)Cc2ccccc2)C(C)(C)c2ccccc21 [Dye IIf],162

# Same assay, conditions: Stokes shift to absorption peak 2; solvent DMSO
row,SMILES,Δλ2
1,CCN1/C(=C/C=C/C(=C/C2=[N+](CC)c3ccccc3C2(C)C)NCc2ccccc2)C(C)(C)c2ccccc21 [Dye IIe],174
2,CCN1/C(=C/C=C/C(=C/C2=[N+](CC)c3ccccc3C2(C)C)N(Cc2ccccc2)Cc2ccccc2)C(C)(C)c2ccccc21 [Dye IIf],151

# Same assay, conditions: Stokes shift to absorption peak 2; solvent Ethanol
row,SMILES,Δλ2
1,CCN1/C(=C/C=C/C(=C/C2=[N+](CC)c3ccccc3C2(C)C)NCc2ccccc2)C(C)(C)c2ccccc21 [Dye IIe],179
2,CCN1/C(=C/C=C/C(=C/C2=[N+](CC)c3ccccc3C2(C)C)N(Cc2ccccc2)Cc2ccccc2)C(C)(C)c2ccccc21 [Dye IIf],163

# Same assay, conditions: Stokes shift to absorption peak 2; solvent Methanol
row,SMILES,Δλ2
1,CCN1/C(=C/C=C/C(=C/C2=[N+](CC)c3ccccc3C2(C)C)NCc2ccccc2)C(C)(C)c2ccccc21 [Dye IIe],174
2,CCN1/C(=C/C=C/C(=C/C2=[N+](CC)c3ccccc3C2(C)C)N(Cc2ccccc2)Cc2ccccc2)C(C)(C)c2ccccc21 [Dye IIf],166

# Same assay, conditions: Stokes shift to absorption peak 2; solvent THF
row,SMILES,Δλ2
1,CCN1/C(=C/C=C/C(=C/C2=[N+](CC)c3ccccc3C2(C)C)NCc2ccccc2)C(C)(C)c2ccccc21 [Dye IIe],170
2,CCN1/C(=C/C=C/C(=C/C2=[N+](CC)c3ccccc3C2(C)C)N(Cc2ccccc2)Cc2ccccc2)C(C)(C)c2ccccc21 [Dye IIf],156

# Same assay, conditions: Stokes shift to absorption peak 2; solvent Water
row,SMILES,Δλ2
1,CCN1/C(=C/C=C/C(=C/C2=[N+](CC)c3ccccc3C2(C)C)NCc2ccccc2)C(C)(C)c2ccccc21 [Dye IIe],188
2,CCN1/C(=C/C=C/C(=C/C2=[N+](CC)c3ccccc3C2(C)C)N(Cc2ccccc2)Cc2ccccc2)C(C)(C)c2ccccc21 [Dye IIf],171

# Same assay, conditions: solvent DCM
SMILES,ε1 (molar extinction coefficient),ε2 (molar extinction coefficient),λabs1,λbs2,λem
CCN1/C(=C/C=C/C(=C/C2=[N+](CC)c3ccccc3C2(C)C)NCc2ccccc2)C(C)(C)c2ccccc21 [Dye IIe],2.8 cm^−1M,2.1 cm^−1M,522 nm,418 nm,603 nm
CCN1/C(=C/C=C/C(=C/C2=[N+](CC)c3ccccc3C2(C)C)N(Cc2ccccc2)Cc2ccccc2)C(C)(C)c2ccccc21 [Dye IIf],3.1 cm^−1M,2.1 cm^−1M,528 nm,453 nm,615 nm

# Same assay, conditions: solvent DMSO
SMILES,ε1 (molar extinction coefficient),ε2 (molar extinction coefficient),λabs1,λbs2,λem
CCN1/C(=C/C=C/C(=C/C2=[N+](CC)c3ccccc3C2(C)C)NCc2ccccc2)C(C)(C)c2ccccc21 [Dye IIe],2.6 cm^−1M,2.3 cm^−1M,515 nm,433 nm,607 nm
CCN1/C(=C/C=C/C(=C/C2=[N+](CC)c3ccccc3C2(C)C)N(Cc2ccccc2)Cc2ccccc2)C(C)(C)c2ccccc21 [Dye IIf],3.3 cm^−1M,2.2 cm^−1M,521 nm,460 nm,611 nm

# Same assay, conditions: solvent Ethanol
SMILES,ε1 (molar extinction coefficient),ε2 (molar extinction coefficient),λabs1,λbs2,λem
CCN1/C(=C/C=C/C(=C/C2=[N+](CC)c3ccccc3C2(C)C)NCc2ccccc2)C(C)(C)c2ccccc21 [Dye IIe],2.8 cm^−1M,2.3 cm^−1M,519 nm,429 nm,608 nm
CCN1/C(=C/C=C/C(=C/C2=[N+](CC)c3ccccc3C2(C)C)N(Cc2ccccc2)Cc2ccccc2)C(C)(C)c2ccccc21 [Dye IIf],3.4 cm^−1M,2.5 cm^−1M,528 nm,452 nm,615 nm

# Same assay, conditions: solvent Methanol
SMILES,ε1 (molar extinction coefficient),ε2 (molar extinction coefficient),λabs1,λbs2,λem
CCN1/C(=C/C=C/C(=C/C2=[N+](CC)c3ccccc3C2(C)C)NCc2ccccc2)C(C)(C)c2ccccc21 [Dye IIe],2.7 cm^−1M,2.2 cm^−1M,517 nm,431 nm,605 nm
CCN1/C(=C/C=C/C(=C/C2=[N+](CC)c3ccccc3C2(C)C)N(Cc2ccccc2)Cc2ccccc2)C(C)(C)c2ccccc21 [Dye IIf],3.4 cm^−1M,2.5 cm^−1M,527 nm,451 nm,617 nm

# Same assay, conditions: solvent THF
SMILES,ε1 (molar extinction coefficient),ε2 (molar extinction coefficient),λabs1,λbs2,λem
CCN1/C(=C/C=C/C(=C/C2=[N+](CC)c3ccccc3C2(C)C)NCc2ccccc2)C(C)(C)c2ccccc21 [Dye IIe],2.9 cm^−1M,2.2 cm^−1M,510 nm,426 nm,596 nm
CCN1/C(=C/C=C/C(=C/C2=[N+](CC)c3ccccc3C2(C)C)N(Cc2ccccc2)Cc2ccccc2)C(C)(C)c2ccccc21 [Dye IIf],4.0 cm^−1M,2.0 cm^−1M,523 nm,453 nm,609 nm

# Same assay, conditions: solvent Water
SMILES,ε1 (molar extinction coefficient),ε2 (molar extinction coefficient),λabs1,λbs2,λem
CCN1/C(=C/C=C/C(=C/C2=[N+](CC)c3ccccc3C2(C)C)NCc2ccccc2)C(C)(C)c2ccccc21 [Dye IIe],2.3 cm^−1M,1.9 cm^−1M,516 nm,429 nm,617 nm
CCN1/C(=C/C=C/C(=C/C2=[N+](CC)c3ccccc3C2(C)C)N(Cc2ccccc2)Cc2ccccc2)C(C)(C)c2ccccc21 [Dye IIf],2.5 cm^−1M,1.9 cm^−1M,525 nm,447 nm,618 nm

# Experiment: Measurement of fluorescence quantum yield (Rhodamine B in ethanol as reference)
# Format: physicochemical
# Conditions: solvent DCM
SMILES,Φ1 (fluorescence quantum yield),Φ2 (fluorescence quantum yield)
CCN1/C(=C/C=C/C(=C/C2=[N+](CC)c3ccccc3C2(C)C)NCc2ccccc2)C(C)(C)c2ccccc21 [Dye IIe],0.106,0.075
CCN1/C(=C/C=C/C(=C/C2=[N+](CC)c3ccccc3C2(C)C)N(Cc2ccccc2)Cc2ccccc2)C(C)(C)c2ccccc21 [Dye IIf],0.113,0.105

# Same assay, conditions: solvent DMSO
SMILES,Φ1 (fluorescence quantum yield),Φ2 (fluorescence quantum yield)
CCN1/C(=C/C=C/C(=C/C2=[N+](CC)c3ccccc3C2(C)C)NCc2ccccc2)C(C)(C)c2ccccc21 [Dye IIe],0.009,0.008
CCN1/C(=C/C=C/C(=C/C2=[N+](CC)c3ccccc3C2(C)C)N(Cc2ccccc2)Cc2ccccc2)C(C)(C)c2ccccc21 [Dye IIf],0.004,0.005

# Same assay, conditions: solvent Ethanol
SMILES,Φ1 (fluorescence quantum yield),Φ2 (fluorescence quantum yield)
CCN1/C(=C/C=C/C(=C/C2=[N+](CC)c3ccccc3C2(C)C)NCc2ccccc2)C(C)(C)c2ccccc21 [Dye IIe],0.019,0.017
CCN1/C(=C/C=C/C(=C/C2=[N+](CC)c3ccccc3C2(C)C)N(Cc2ccccc2)Cc2ccccc2)C(C)(C)c2ccccc21 [Dye IIf],0.010,0.009

# Same assay, conditions: solvent Methanol
SMILES,Φ1 (fluorescence quantum yield),Φ2 (fluorescence quantum yield)
CCN1/C(=C/C=C/C(=C/C2=[N+](CC)c3ccccc3C2(C)C)NCc2ccccc2)C(C)(C)c2ccccc21 [Dye IIe],0.008,0.007
CCN1/C(=C/C=C/C(=C/C2=[N+](CC)c3ccccc3C2(C)C)N(Cc2ccccc2)Cc2ccccc2)C(C)(C)c2ccccc21 [Dye IIf],0.005,0.004

# Same assay, conditions: solvent THF
SMILES,Φ1 (fluorescence quantum yield),Φ2 (fluorescence quantum yield)
CCN1/C(=C/C=C/C(=C/C2=[N+](CC)c3ccccc3C2(C)C)NCc2ccccc2)C(C)(C)c2ccccc21 [Dye IIe],0.085,0.075
CCN1/C(=C/C=C/C(=C/C2=[N+](CC)c3ccccc3C2(C)C)N(Cc2ccccc2)Cc2ccccc2)C(C)(C)c2ccccc21 [Dye IIf],0.036,0.034

# Same assay, conditions: solvent Water
SMILES,Φ1 (fluorescence quantum yield),Φ2 (fluorescence quantum yield)
CCN1/C(=C/C=C/C(=C/C2=[N+](CC)c3ccccc3C2(C)C)NCc2ccccc2)C(C)(C)c2ccccc21 [Dye IIe],0.003,0.001
CCN1/C(=C/C=C/C(=C/C2=[N+](CC)c3ccccc3C2(C)C)N(Cc2ccccc2)Cc2ccccc2)C(C)(C)c2ccccc21 [Dye IIf],0.001,0.002
